According to patent publication US20240270821A1, “GIP/GLP1/GCG TRI-RECEPTOR AGONISTS AND USES THEREOF” (priority 2023, published 2024):
Like-named read-outs stand apart in the source and are kept apart here. Starred links: 1 amine or outer side, 2 acyl side, 3 side chain; linkers in the order of their positions; H or OH if unused. Non-standard residues stand in square brackets, D forms with d. Residues, ends and D or L forms follow the SMILES beside them. Groups on a side chain read outwards from the residue. No end group written: not given here. *: point of attachment. C20 diacid = O=C(O)CCCCCCCCCCCCCCCCCCC(=O)*; C18 diacid = O=C(O)CCCCCCCCCCCCCCCCC(=O)*; αMePhe(2-F) = C[C@](N)(Cc1ccccc1F)C(=O)O; γGlu = O=C(O)[C@H](CCC(=O)[*:2])N[*:1]; αMe4Pal = C[C@](N)(Cc1ccncc1)C(=O)O; αMeY = C[C@](N)(Cc1ccc(O)cc1)C(=O)O; 4Pal = N[C@@H](Cc1ccncc1)C(=O)O; αMeL = CC(C)C[C@](C)(N)C(=O)O; αMeS = C[C@](N)(CO)C(=O)O; Orn = NCCC[C@H](N)C(=O)O; AEEA = NCCOCCOCC(=O)O; Aib = CC(C)(N)C(=O)O

What was measured:
Format in all cases: cell-based
hGIPR [1] = target: T1, hGIPR (Homo sapiens, UniProt P48546); test: Functional cAMP activity in the presence of 1% HSA; conditions: read-out: cAMP Rel EC50, hGIPR
T1 sequence (P48546 22-466): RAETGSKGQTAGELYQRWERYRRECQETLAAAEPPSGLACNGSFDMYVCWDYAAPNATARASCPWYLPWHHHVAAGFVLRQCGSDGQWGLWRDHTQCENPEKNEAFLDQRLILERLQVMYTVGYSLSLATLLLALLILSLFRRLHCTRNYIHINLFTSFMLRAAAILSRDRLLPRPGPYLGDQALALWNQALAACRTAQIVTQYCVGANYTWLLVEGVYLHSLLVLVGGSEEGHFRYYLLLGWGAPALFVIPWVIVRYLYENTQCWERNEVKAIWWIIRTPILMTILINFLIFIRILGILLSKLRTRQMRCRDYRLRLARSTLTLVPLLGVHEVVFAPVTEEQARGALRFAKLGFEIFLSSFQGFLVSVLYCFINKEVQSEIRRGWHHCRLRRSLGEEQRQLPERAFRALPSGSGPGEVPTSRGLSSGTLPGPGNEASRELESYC

hGLP-1R [2] = target: T2, hGLP-1R (Homo sapiens, UniProt P43220); test: Functional cAMP activity in the presence of 1% HSA; conditions: read-out: cAMP Rel EC50, hGLP-1R
human GcgR = human GcgR (Homo sapiens, UniProt P47871); test: Functional cAMP activity in the presence of 1% HSA; conditions: read-out: cAMP Rel EC50, hGcgR
hGIPR [3] = target: T1, hGIPR; test: Functional cAMP activation in the presence of 0.1% casein (no HSA); conditions: read-out: Relative cAMP EC50, hGIPR;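 for Relative cAMP EC50, hGIPR: intracellular cAMP rise after 30 min at 37 °C read by HTRF against a standard curve, scaled between buffer alone (0%) and top control ligand concentration (100%), four-parameter fit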;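 for Relative cAMP EC50, hGLP-1R: intracellular cAMP rise after 30 min at 37 °C read by HTRF, normalized between buffer only (0%) and maximal control ligand (100%), four-parameter variable-slope fit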;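 for Relative cAMP EC50, hGcgR: intracellular cAMP rise after 30 min at 37 °C, read by HTRF against a cAMP standard curve, scaled from buffer only (0%) to maximal control ligand response (100%)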
hGLP-1R [4] = target: T2, hGLP-1R; test: as above; conditions: read-out: Relative cAMP EC50, hGLP-1R
hGcgR = hGcgR (Homo sapiens, UniProt P47871); test: as above; conditions: read-out: Relative cAMP EC50, hGcgR;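 note: intracellular cAMP rise after 30 min at 37 °C, read by HTRF against a cAMP standard curve, scaled from buffer only (0%) to maximal control ligand response (100%)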
[5] = HEK-293 clonal cell line, 1% HSA, geometric mean of relative EC50
[6] = in the presence of 0.1% casein (no HSA), geometric mean of relative EC50
[7] = in the presence of 0.1% casein (no HSA), geometric mean
[8] = 0.1% casein, no HSA, geometric mean

hGcgR, sequence (P47871 26-477): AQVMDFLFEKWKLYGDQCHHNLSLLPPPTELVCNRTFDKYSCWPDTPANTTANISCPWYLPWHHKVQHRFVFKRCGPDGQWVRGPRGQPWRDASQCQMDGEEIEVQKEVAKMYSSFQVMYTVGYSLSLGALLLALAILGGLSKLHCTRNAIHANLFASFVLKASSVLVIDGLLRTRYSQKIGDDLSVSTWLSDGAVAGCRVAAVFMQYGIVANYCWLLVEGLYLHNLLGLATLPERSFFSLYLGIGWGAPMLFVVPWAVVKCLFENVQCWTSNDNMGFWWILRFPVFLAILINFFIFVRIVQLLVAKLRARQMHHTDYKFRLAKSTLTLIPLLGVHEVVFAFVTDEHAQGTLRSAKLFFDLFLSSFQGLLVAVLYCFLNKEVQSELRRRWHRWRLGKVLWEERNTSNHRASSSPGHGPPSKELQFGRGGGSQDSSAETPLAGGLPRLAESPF
human GcgR, sequence (P47871 26-477): as above
T2 sequence (P43220 24-463): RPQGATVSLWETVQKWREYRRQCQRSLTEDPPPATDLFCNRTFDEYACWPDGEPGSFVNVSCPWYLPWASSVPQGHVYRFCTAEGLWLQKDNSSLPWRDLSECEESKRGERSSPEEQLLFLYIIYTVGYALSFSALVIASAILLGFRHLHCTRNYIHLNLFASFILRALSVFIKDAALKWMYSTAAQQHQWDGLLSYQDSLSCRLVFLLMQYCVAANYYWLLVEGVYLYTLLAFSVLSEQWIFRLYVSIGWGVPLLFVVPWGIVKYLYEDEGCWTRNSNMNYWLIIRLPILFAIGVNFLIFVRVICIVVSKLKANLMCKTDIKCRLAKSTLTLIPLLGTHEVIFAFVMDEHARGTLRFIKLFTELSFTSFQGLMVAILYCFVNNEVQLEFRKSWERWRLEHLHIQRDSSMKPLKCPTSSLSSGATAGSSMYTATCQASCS

| Compound | EC50 (hGIPR [1]) [nM] | EC50 (hGLP-1R [2]) [nM] | EC50 (human GcgR) [nM] | EC50 (hGIPR [3]) [nM] | EC50 (hGLP-1R [4]) [nM] | EC50 (hGcgR) [nM] | EC50 (hGIPR [3]; [7]) [nM] | EC50 (hGLP-1R [4]; [7]) [nM] | EC50 (hGcgR; [7]) [nM] | also measured |
| --- | --- | --- | --- | --- | --- | --- | --- | --- | --- | --- |
| H-Y[Aib]QGT[αMePhe(2-F)]TSD[4Pal]SI[αMeL]LDKK([γGlu-γGlu-C18 diacid])AQ[Aib][Orn]FIEYLQEGGPSSGEPPPEGSEE-NH2 [Example 653] | – | – | – | – | – | – | – | – | – | EC50 (hGIPR [1]; [5]): 1.38 nM; EC50 (hGLP-1R [2]; [5]): 25 nM; EC50 (human GcgR; [5]): 542 nM; EC50 (hGIPR [3]; [6]): 0.0303 nM; EC50 (hGLP-1R [4]; [6]): 0.426 nM; EC50 (hGcgR; [6]): 7.29 nM |
| CC[C@H](C)[C@H](NC(=O)[C@H](Cc1ccccc1)NC(=O)[C@H](C)NC(=O)C(C)(C)NC(=O)[C@H](CCC(N)=O)NC(=O)[C@H](C)NC(=O)[C@H](CCCCNC(=O)COCCOCCNC(=O)COCCOCCNC(=O)CC[C@H](NC(=O)CCCCCCCCCCCCCCCCC(=O)O)C(=O)O)NC(=O)[C@H](CCCCN)NC(=O)[C@H](CC(=O)O)NC(=O)[C@H](CC(C)C)NC(=O)[C@H](CC(C)C)NC(=O)[C@@H](NC(=O)[C@](C)(CO)NC(=O)[C@H](Cc1ccc(O)cc1)NC(=O)[C@H](CC(=O)O)NC(=O)[C@H](CO)NC(=O)[C@@H](NC(=O)[C@](C)(Cc1ccccc1F)NC(=O)[C@@H](NC(=O)CNC(=O)[C@H](CCC(N)=O)NC(=O)C(C)(C)NC(=O)[C@@H](N)Cc1ccc(O)cc1)[C@@H](C)O)[C@@H](C)O)[C@@H](C)CC)C(=O)N[C@@H](CCC(=O)O)C(=O)N[C@@H](Cc1ccc(O)cc1)C(=O)N[C@@H](CC(C)C)C(=O)N[C@@H](CCC(=O)O)C(=O)N[C@@H](CCC(=O)O)C(=O)NCC(=O)NCC(=O)N1CCC[C@H]1C(=O)N[C@@H](CO)C(=O)N[C@@H](CO)C(=O)NCC(=O)N[C@@H](C)C(=O)N1CCC[C@H]1C(=O)N1CCC[C@H]1C(=O)N1CCC[C@H]1C(=O)N[C@@H](CCC(=O)O)C(N)=O [Example 468] (H-Y[Aib]QGT[αMePhe(2-F)]TSDY[αMeS]ILLDKK([AEEA-AEEA-γGlu-C18 diacid])AQ[Aib]AFIEYLEEGGPSSGAPPPE-NH2) | 4.76 | 30.7 | 195 | 0.0222 | 0.466 | 1.95 | – | – | – | – |
| CC[C@H](C)[C@H](NC(=O)[C@H](Cc1ccccc1)NC(=O)[C@H](CCCN)NC(=O)C(C)(C)NC(=O)[C@H](CCC(N)=O)NC(=O)[C@H](C)NC(=O)[C@H](CCCCNC(=O)CC[C@H](NC(=O)CC[C@H](NC(=O)CCCCCCCCCCCCCCCCC(=O)O)C(=O)O)C(=O)O)NC(=O)[C@H](CCCN)NC(=O)[C@H](CC(=O)O)NC(=O)[C@H](CC(C)C)NC(=O)[C@](C)(CC(C)C)NC(=O)[C@@H](NC(=O)[C@](C)(CO)NC(=O)[C@H](Cc1ccncc1)NC(=O)[C@H](CC(=O)O)NC(=O)[C@H](CO)NC(=O)[C@@H](NC(=O)[C@](C)(Cc1ccccc1F)NC(=O)[C@@H](NC(=O)CNC(=O)[C@H](CCC(N)=O)NC(=O)C(C)(C)NC(=O)[C@@H](N)Cc1ccc(O)cc1)[C@@H](C)O)[C@@H](C)O)[C@@H](C)CC)C(=O)N[C@H](CCC(=O)O)C(=O)N[C@@](C)(Cc1ccc(O)cc1)C(=O)N[C@@H](CC(C)C)C(=O)N[C@@H](C)C(=O)N[C@@H](CCC(=O)O)C(=O)NCC(=O)NCC(=O)N1CCC[C@H]1C(=O)N[C@@H](CO)C(=O)N[C@@H](CO)C(=O)NCC(=O)N[C@@H](CCC(=O)O)C(=O)N1CCC[C@H]1C(=O)N1CCC[C@H]1C(=O)N1CCC[C@H]1C(=O)N[C@@H](CCC(=O)O)C(N)=O [Example 437] (H-Y[Aib]QGT[αMePhe(2-F)]TSD[4Pal][αMeS]I[αMeL]LD[Orn]K([γGlu-γGlu-C18 diacid])AQ[Aib][Orn]FI[dE][αMeY]LAEGGPSSGEPPPE-NH2) | 16.9 | 26.9 | 188 | 0.0872 | 0.421 | 1.76 | – | – | – | – |
| Y[Aib]QGT[αMePhe(2-F)]TSD[4Pal]SI[αMeL]LD[Orn]K([AEEA-AEEA-γGlu-C18 diacid])AQ[αMe4Pal]EFI[dE][αMeY]LLEGGPSSGAPPPSGE-NH2 [Example 613] | 0.791 | 81.6 | 1410 | 0.00925 | 0.698 | 20.4 | – | – | – | – |
| Y[Aib]QGTFTSD[4Pal]SK[αMeL]LDKK([AEEA-γGlu-C18 diacid])AQ[Aib]AFIEYLIE[Aib]GESSGEPPPSGE-NH2 [Example 281] | 25.8 | 295 | 1370 | – | – | – | 0.154 | 1.6 | 13.7 | – |
| H-Y[Aib]QGT[αMePhe(2-F)]TSD[4Pal][αMeS]I[αMeL]LD[Orn]K([AEEA-γGlu-C18 diacid])AQ[αMe4Pal]EFI[dE][αMeY]LVEGGPSSGEPPPESE-NH2 [Example 1157] | 1.28 | 57.5 | 384 | – | – | – | 0.0124 | 0.408 | 2.04 | – |
| H-Y[Aib]QGT[αMePhe(2-F)]TSD[4Pal][αMeS]I[αMeL]LD[Orn]K([γGlu-γGlu-C18 diacid])AQ[Aib][Orn]FI[dE][αMeY]LSEGGPSSGEPPPSGAEE-NH2 [Example 567] | 13.4 | 102 | 521 | 0.165 | 1.07 | 5.89 | – | – | – | – |
| H-Y[Aib]QGTFTSDFS[Orn][αMeL]LDKK([AEEA-γGlu-C20 diacid])AQ[Aib]AFIEWLLAGGPSSGEPPPSGE-NH2 [Example 103] | 35.1 | 482 | 2590 | – | – | – | 0.2 | 3.27 | 10.5 | – |
| CC[C@H](C)[C@H](NC(=O)[C@H](Cc1ccccc1)NC(=O)[C@H](C)NC(=O)C(C)(C)NC(=O)[C@H](CCC(N)=O)NC(=O)[C@H](C)NC(=O)[C@H](CCCCNC(=O)COCCOCCNC(=O)CC[C@H](NC(=O)CCCCCCCCCCCCCCCCC(=O)O)C(=O)O)NC(=O)[C@H](CCCCN)NC(=O)[C@H](CC(=O)O)NC(=O)[C@H](CC(C)C)NC(=O)[C@H](CC(C)C)NC(=O)[C@@H](NC(=O)[C@](C)(CO)NC(=O)[C@H](Cc1ccncc1)NC(=O)[C@H](CC(=O)O)NC(=O)[C@H](CO)NC(=O)[C@@H](NC(=O)[C@](C)(Cc1ccccc1F)NC(=O)[C@@H](NC(=O)CNC(=O)[C@H](CCC(N)=O)NC(=O)C(C)(C)NC(=O)[C@@H](N)Cc1ccc(O)cc1)[C@@H](C)O)[C@@H](C)O)[C@@H](C)CC)C(=O)N[C@@H](CCC(=O)O)C(=O)N[C@@H](Cc1ccc(O)cc1)C(=O)N[C@@H](CC(C)C)C(=O)N[C@@H](CCC(=O)O)C(=O)N[C@@H](CCC(=O)O)C(=O)NCC(=O)NCC(=O)N1CCC[C@H]1C(=O)N[C@@H](CO)C(=O)N[C@@H](CO)C(=O)NCC(=O)N[C@@H](C)C(=O)N1CCC[C@H]1C(=O)N1CCC[C@H]1C(=O)N1CCC[C@H]1C(=O)N[C@@H](CCC(=O)O)C(N)=O [Example 464] (H-Y[Aib]QGT[αMePhe(2-F)]TSD[4Pal][αMeS]ILLDKK([AEEA-γGlu-C18 diacid])AQ[Aib]AFIEYLEEGGPSSGAPPPE-NH2) | 19.9 | 45.5 | 194 | 0.072 | 0.466 | 1.25 | – | – | – | – |
| H-Y[Aib]QGTFTSDFS[Orn][αMeL]LDKK([AEEA-γGlu-C20 diacid])AQ[Aib]AFIEYLLE[Aib]GPSSGAPPPSGS-NH2 [Example 73] | 57.9 | 810 | 1530 | – | – | – | 0.114 | 2.44 | 4.58 | – |
| H-Y[Aib]QGT[αMePhe(2-F)]TSD[4Pal][αMeS]I[αMeL]LD[Orn]K([γGlu-γGlu-C18 diacid])AQ[αMe4Pal]EFI[dE][αMeY]LIEGGPPS[Aib][Orn]PPP[Orn]GS-NH2 [Example 1226] | 0.443 | 34.4 | 184 | – | – | – | – | – | – | EC50 (hGIPR [3]; [8]): 0.00539 nM; EC50 (hGLP-1R [4]; [8]): 0.264 nM; EC50 (hGcgR; [8]): 1.65 nM |
| H-Y[Aib]QGT[αMePhe(2-F)]TSD[4Pal][αMeS]I[αMeL]LD[Orn]K([γGlu-γGlu-C18 diacid])AQ[Aib][Orn]FI[dE]YLLEGGPSSGEPPPSGTE-NH2 [Example 532] | 1.49 | 47.3 | 157 | 0.0159 | 0.577 | 1.37 | – | – | – | – |
